Results on 34 molecules are retold here after US20240166635A1, “AMINOHETEROARYL KINASE INHIBITORS” (Anrui Biomedical Technology (Guangzhou) Co.,Ltd., priority 2020, published 2024).

Holding throughout (type): biochemical
In one assay the target is CDK1/CyclinB (Homo sapiens (Human), UniProt P06493). Briefly: CDK1/CyclinB kinase inhibitory activity (Caliper mobility shift). Conditions: read-out: CDK1/Cyclin B1 IC50.
In a further assay the target is CDK9/CyclinT1 (Homo sapiens (Human), UniProt P50750). Briefly: CDK9/CyclinT1 kinase inhibitory activity (Caliper mobility shift). Conditions: read-out: CDK9/Cyclin T1 IC50.
Chain of CDK9/CyclinT1 (P50750 whole entry): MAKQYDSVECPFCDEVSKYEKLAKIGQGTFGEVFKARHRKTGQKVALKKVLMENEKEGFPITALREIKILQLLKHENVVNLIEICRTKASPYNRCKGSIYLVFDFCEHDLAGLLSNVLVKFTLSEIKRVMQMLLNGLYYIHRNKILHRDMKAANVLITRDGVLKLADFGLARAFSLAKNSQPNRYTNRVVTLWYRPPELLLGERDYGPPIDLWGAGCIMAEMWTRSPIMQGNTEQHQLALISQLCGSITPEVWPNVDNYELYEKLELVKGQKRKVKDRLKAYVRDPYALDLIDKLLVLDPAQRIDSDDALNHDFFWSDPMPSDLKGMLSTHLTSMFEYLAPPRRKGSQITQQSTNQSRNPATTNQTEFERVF
Chain of CDK9/CyclinT1 (O60563 whole entry partner): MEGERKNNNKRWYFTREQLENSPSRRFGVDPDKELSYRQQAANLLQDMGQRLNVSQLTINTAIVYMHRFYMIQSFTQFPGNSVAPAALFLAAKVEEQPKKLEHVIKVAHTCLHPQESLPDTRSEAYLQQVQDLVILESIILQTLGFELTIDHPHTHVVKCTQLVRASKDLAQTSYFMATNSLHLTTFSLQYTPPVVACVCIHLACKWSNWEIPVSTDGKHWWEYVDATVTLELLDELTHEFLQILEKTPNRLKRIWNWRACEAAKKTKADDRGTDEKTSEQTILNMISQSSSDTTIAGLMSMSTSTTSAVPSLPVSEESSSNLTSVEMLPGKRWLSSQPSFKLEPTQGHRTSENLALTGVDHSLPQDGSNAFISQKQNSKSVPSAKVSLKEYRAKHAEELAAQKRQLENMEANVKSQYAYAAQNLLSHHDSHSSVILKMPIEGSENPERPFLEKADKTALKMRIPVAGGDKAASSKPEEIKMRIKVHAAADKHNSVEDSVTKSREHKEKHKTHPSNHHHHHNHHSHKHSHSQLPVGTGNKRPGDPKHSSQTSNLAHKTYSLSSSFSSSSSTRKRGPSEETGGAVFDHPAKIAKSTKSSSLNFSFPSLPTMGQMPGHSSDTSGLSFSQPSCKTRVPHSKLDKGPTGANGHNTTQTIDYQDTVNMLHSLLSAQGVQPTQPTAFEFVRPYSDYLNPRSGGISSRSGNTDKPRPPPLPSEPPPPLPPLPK
The next assay concerns the target CDK2/CyclinE1 (Homo sapiens (Human), UniProt P24941). Put plainly: CDK2/CyclinE1 kinase inhibitory activity (Caliper mobility shift). To be noted: read-out: CDK2/Cyclin El IC50.

Chain of CDK1/CyclinB (P06493 whole entry): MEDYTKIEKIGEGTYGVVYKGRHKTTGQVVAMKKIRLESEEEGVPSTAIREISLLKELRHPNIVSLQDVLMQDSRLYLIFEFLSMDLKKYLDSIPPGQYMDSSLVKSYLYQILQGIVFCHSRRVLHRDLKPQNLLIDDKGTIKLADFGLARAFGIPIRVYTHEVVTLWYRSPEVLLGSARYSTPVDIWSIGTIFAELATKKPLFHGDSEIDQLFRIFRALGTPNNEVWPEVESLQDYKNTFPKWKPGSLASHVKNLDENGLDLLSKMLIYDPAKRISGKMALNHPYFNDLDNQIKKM
Chain of CDK1/CyclinB (P14635 whole entry partner): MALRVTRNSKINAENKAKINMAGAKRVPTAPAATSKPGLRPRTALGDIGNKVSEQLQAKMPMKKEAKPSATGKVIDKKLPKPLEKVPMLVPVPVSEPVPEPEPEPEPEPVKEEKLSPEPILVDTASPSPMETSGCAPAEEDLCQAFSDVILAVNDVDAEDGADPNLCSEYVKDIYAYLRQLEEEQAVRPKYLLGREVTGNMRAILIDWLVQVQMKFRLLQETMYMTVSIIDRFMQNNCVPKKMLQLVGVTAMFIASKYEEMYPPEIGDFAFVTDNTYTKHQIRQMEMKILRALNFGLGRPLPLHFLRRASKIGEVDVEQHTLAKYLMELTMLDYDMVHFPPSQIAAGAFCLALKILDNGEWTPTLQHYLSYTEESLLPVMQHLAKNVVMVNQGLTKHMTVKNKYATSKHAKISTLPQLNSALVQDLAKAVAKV

For `CC(C)CS(=O)(=O)N1CCC(Nc2ncc(C#N)c(OC3CCCC3(C)O)n2)CC1` (single isomer, unassigned) [Example 39b], the IC50 was 100 to 1000 nM on CDK1/CyclinB, not below 1000 nM on CDK9/CyclinT1 and 10 to 100 nM at CDK2/CyclinE1.
In the same order, the values of `NS(=O)(=O)c1ccc(Nc2ncc(C(F)(F)F)c(O[C@@H]3CCC[C@@H]3O)n2)cc1` (single isomer, unassigned) [Example 99b, cis-4-((4-((2-hydroxycyclopentyl)oxy)-5-(trifluoromethyl)pyrimidin-2-yl)amino)benzenesulfonamide] are 10 to 100 nM, 100 to 1000 nM and less than 10 nM.
For `CC(C)NS(=O)(=O)c1ccc(Nc2ncc(C(F)(F)F)c(OC3CCCC3O)n2)cc1` (single isomer, unassigned) [Example 106b], the values for the IC50 on CDK1/CyclinB, on CDK9/CyclinT1 and at CDK2/CyclinE1 were 10 to 100 nM, 100 to 1000 nM and less than 10 nM, respectively.
Turning to `O=S(=O)(NC1CC1)c1ccc(Nc2ncc(C(F)(F)F)c(OC3CCCC3O)n2)cc1` (single isomer, unassigned) [Example 107b], the results for the IC50 at CDK1/CyclinB, on CDK9/CyclinT1 and at CDK2/CyclinE1 were 10 to 100 nM, 100 to 1000 nM and less than 10 nM, respectively.
Turning to `[2H]C([2H])([2H])NS(=O)(=O)c1ccc(Nc2ncc(C(F)(F)F)c(OC3CCCC3O)n2)cc1` (single isomer, unassigned) [Example 109b], the IC50 on CDK1/CyclinB was 100 to 1000 nM; on CDK9/CyclinT1, 100 to 1000 nM; at CDK2/CyclinE1, 10 to 100 nM.
On to `[2H]C1([2H])CC(O)C(Oc2nc(Nc3ccc(S(=O)(=O)NC([2H])([2H])[2H])cc3)ncc2C(F)(F)F)C1` (single isomer, unassigned) [Example 110b], for which the IC50 on CDK1/CyclinB was 100 to 1000 nM; on CDK9/CyclinT1 it was 100 to 1000 nM; on CDK2/CyclinE1 it was less than 10 nM.
As for `NS(=O)(=O)c1ccc(Nc2ncc(C(F)(F)F)c(OC3CCCCC3O)n2)cc1` (single isomer, unassigned) [Example 111a], the IC50 on CDK1/CyclinB was 100 to 1000 nM; on CDK9/CyclinT1 it was 100 to 1000 nM; at CDK2/CyclinE1, less than 10 nM.
Regarding `CC1CCCC(O)C1Oc1nc(Nc2ccc(S(N)(=O)=O)cc2)ncc1C(F)(F)F` (single isomer, unassigned) [Example 112b], the IC50 was 100 to 1000 nM at CDK1/CyclinB, 100 to 1000 nM on CDK9/CyclinT1 and less than 10 nM at CDK2/CyclinE1.
Consider `NS(=O)(=O)c1ccc(Nc2ncc(C(F)(F)F)c(O[C@H]3[C@@H]4CC[C@@H](C4)[C@H]3O)n2)cc1` (single isomer, unassigned) [Example 113a], for which the figures for the IC50 on CDK1/CyclinB, at CDK9/CyclinT1 and on CDK2/CyclinE1 were 100 to 1000 nM, 100 to 1000 nM and less than 10 nM, respectively.
On to `NS(=O)(=O)c1ccc(Nc2ncc(C(F)(F)F)c(O[C@H]3[C@@H]4CC[C@@H](C4)[C@H]3O)n2)cc1` (single isomer, unassigned) [Example 113b], for which the IC50 at CDK1/CyclinB is 10 to 100 nM; at CDK9/CyclinT1, 100 to 1000 nM; on CDK2/CyclinE1, less than 10 nM.
In the same order, the values of `NS(=O)(=O)c1ccc(Nc2ncc(C(F)(F)F)c(OC3CCOCC3O)n2)cc1` (single isomer, unassigned) [Example 114b] are 100 to 1000 nM, 100 to 1000 nM and 10 to 100 nM.
With `NS(=O)(=O)c1ccc(Nc2ncc(C(F)(F)F)c(OC3COCCC3O)n2)cc1` (single isomer, unassigned) [Example 115b], the IC50 at CDK1/CyclinB is 100 to 1000 nM; on CDK9/CyclinT1 it was 100 to 1000 nM; on CDK2/CyclinE1 it was 10 to 100 nM.
`CNS(=O)(=O)c1ccc(Nc2ncc(C(F)(F)F)c(OC3CCOCC3O)n2)cc1` (single isomer, unassigned) [Example 116b]: the IC50 was 100 to 1000 nM at CDK1/CyclinB, not below 1000 nM at CDK9/CyclinT1 and 10 to 100 nM at CDK2/CyclinE1.
As to `[2H]C([2H])([2H])NS(=O)(=O)c1ccc(Nc2ncc(C(F)(F)F)c(OC3COCCC3O)n2)cc1` (single isomer, unassigned) [Example 117b], the IC50 was 100 to 1000 nM on CDK1/CyclinB, not below 1000 nM on CDK9/CyclinT1 and 10 to 100 nM on CDK2/CyclinE1.
Taken in the same sequence, the figures for `NS(=O)(=O)c1ccc(Nc2ncc(C(F)(F)F)c(OC3CCCCCC3O)n2)cc1` (single isomer, unassigned) [Example 118b] were 10 to 100 nM, 10 to 100 nM and less than 10 nM.
In the same order, the values of `CS(=O)(=O)N1CCC(Nc2ncc(C(F)(F)F)c(OC3CCCCC3O)n2)CC1` (single isomer, unassigned) [Example 120b] are 100 to 1000 nM, not below 1000 nM and 10 to 100 nM.
On to `CS(=O)(=O)N1CCC(Nc2ncc(C(F)(F)F)c(OC3CCCCCC3O)n2)CC1` (single isomer, unassigned) [Example 121b], for which the values for the IC50 on CDK1/CyclinB, at CDK9/CyclinT1 and at CDK2/CyclinE1 were 100 to 1000 nM, 100 to 1000 nM and 10 to 100 nM, respectively.
In the case of `NS(=O)(=O)N1CCC(Nc2ncc(C(F)(F)F)c(OC3CCCCCC3O)n2)CC1` (single isomer, unassigned) [Example 122a], the IC50 at CDK1/CyclinB was 100 to 1000 nM; at CDK9/CyclinT1 it was 100 to 1000 nM; on CDK2/CyclinE1 it was less than 10 nM.
For `CNS(=O)(=O)N1CCC(Nc2ncc(C(F)(F)F)c(OC3CCCCCC3O)n2)CC1` (single isomer, unassigned) [Example 123a], the IC50 on CDK1/CyclinB lay within 100 to 1000 nM; at CDK9/CyclinT1 it was 100 to 1000 nM; at CDK2/CyclinE1 it was 10 to 100 nM.
As for `O=S(=O)(NC1CCOCC1)c1ccc(Nc2ncc(Cl)c(O[C@@H]3CCC[C@@H]3O)n2)cc1` (single isomer, unassigned) [Example 130b, cis-4-((5-chloro-4-((2-hydroxycyclopentyl)oxy)pyrimidin-2-yl)amino)-N-(tetrahydro-2H-pyran-4-yl)benzenesulfonamide], the IC50 was in the range of 10 to 100 nM at CDK1/CyclinB, 100 to 1000 nM at CDK9/CyclinT1 and 10 to 100 nM on CDK2/CyclinE1.
In the case of `CC1(NS(=O)(=O)c2ccc(Nc3ncc(Br)c(O[C@@H]4CCC[C@@H]4O)n3)cc2)COC1` (single isomer, unassigned) [Example 131b, cis-4-((5-bromo-4-((2-hydroxycyclopentyl)oxy)pyrimidin-2-yl)amino)-N-(3-methyloxetan-3-yl)benzenesulfonamide], the IC50 on CDK1/CyclinB was 100 to 1000 nM; on CDK9/CyclinT1 it was 100 to 1000 nM; at CDK2/CyclinE1 it was less than 10 nM.
For `Cc1cnc(Nc2ccc(S(N)(=O)=O)cc2)nc1O[C@@H]1CCC[C@@H]1O` (single isomer, unassigned) [Example 132b, cis-4-((4-((2-hydroxycyclopentyl)oxy)-5-methylpyrimidin-2-yl)amino)benzenesulfonamide], the results for the IC50 at CDK1/CyclinB, at CDK9/CyclinT1 and on CDK2/CyclinE1 were 100 to 1000 nM, 100 to 1000 nM and 10 to 100 nM, respectively.
Regarding `CCc1cnc(Nc2ccc(S(N)(=O)=O)cc2)nc1O[C@@H]1CCC[C@@H]1O` (single isomer, unassigned) [Example 133b, cis-4-((5-ethyl-4-((2-hydroxycyclopentyl)oxy)pyrimidin-2-yl)amino)benzenesulfonamide], the IC50 at CDK1/CyclinB was 100 to 1000 nM; at CDK9/CyclinT1 it was 100 to 1000 nM; on CDK2/CyclinE1, less than 10 nM.
Turning to `CC(C)NS(=O)(=O)c1ccc(Nc2ncc(C3CC3)c(O[C@@H]3CCC[C@@H]3O)n2)cc1` (single isomer, unassigned) [Example 134b, cis-4-((5-cyclopropyl-4-((2-hydroxycyclopentyl)oxy)pyrimidin-2-yl)amino)-N-isopropylbenzenesulfonamide], the figures for the IC50 at CDK1/CyclinB, at CDK9/CyclinT1 and at CDK2/CyclinE1 were 100 to 1000 nM, 100 to 1000 nM and 10 to 100 nM, respectively.
Take `NS(=O)(=O)c1ccc(Nc2ncc(Cl)c(OC3CCCC3O)n2)cc1` (single isomer, unassigned) [Example 136b]: the values for the IC50 on CDK1/CyclinB, at CDK9/CyclinT1 and at CDK2/CyclinE1 were 10 to 100 nM, 100 to 1000 nM and less than 10 nM, respectively.
Turning to `CNS(=O)(=O)c1ccc(Nc2ncc(Cl)c(OC3CCCC3O)n2)cc1` (single isomer, unassigned) [Example 137b], the IC50 on CDK1/CyclinB is 10 to 100 nM; on CDK9/CyclinT1, 100 to 1000 nM; at CDK2/CyclinE1 it was less than 10 nM.
Taken in the same sequence, the figures for `CC(C)NS(=O)(=O)c1ccc(Nc2ncc(Cl)c(OC3CCCC3O)n2)cc1` (single isomer, unassigned) [Example 138b] were 10 to 100 nM, 100 to 1000 nM and less than 10 nM.
In the case of `[2H]C([2H])([2H])NS(=O)(=O)c1ccc(Nc2ncc(Cl)c(OC3COCC3(C)O)n2)cc1` (single isomer, unassigned) [Example 140b], the IC50 was not below 1000 nM on CDK1/CyclinB, not below 1000 nM on CDK9/CyclinT1 and 10 to 100 nM at CDK2/CyclinE1.
Regarding `NS(=O)(=O)c1ccc(Nc2ncc(Br)c(OC3CCCC3O)n2)cc1` (single isomer, unassigned) [Example 141b], the IC50 was 10 to 100 nM on CDK1/CyclinB, 100 to 1000 nM at CDK9/CyclinT1 and less than 10 nM on CDK2/CyclinE1.
For `CNS(=O)(=O)c1ccc(Nc2ncc(Br)c(OC3CCCC3O)n2)cc1` (single isomer, unassigned) [Example 142b], the IC50 on CDK1/CyclinB was 10 to 100 nM; on CDK9/CyclinT1, 100 to 1000 nM; at CDK2/CyclinE1, less than 10 nM.
Taken in the same sequence, the figures for `[2H]C([2H])([2H])NS(=O)(=O)c1ccc(Nc2ncc(Br)c(OC3CCCC3O)n2)cc1` (single isomer, unassigned) [Example 143b] were 100 to 1000 nM, 100 to 1000 nM and less than 10 nM.
In the same order, the values of `Cn1cc(S(=O)(=O)N2CCC(Nc3ncc(Br)c(OC4CCCCC4O)n3)CC2)cn1` (single isomer, unassigned) [Example 144a] are 100 to 1000 nM, not below 1000 nM and 10 to 100 nM.
For the molecule `CS(=O)(=O)N1CCC(Nc2ncc(Br)c(OC3CCCCCC3O)n2)CC1` (single isomer, unassigned) [Example 145a], the IC50 at CDK1/CyclinB was 100 to 1000 nM; at CDK9/CyclinT1, not below 1000 nM; at CDK2/CyclinE1, 10 to 100 nM.
In the case of `Cc1cnc(Nc2ccc(S(=O)(=O)NC3CC3)cc2)nc1OC1CCCC1O` (single isomer, unassigned) [Example 146b], the IC50 is 100 to 1000 nM at CDK1/CyclinB, not below 1000 nM at CDK9/CyclinT1 and 10 to 100 nM on CDK2/CyclinE1.
